# System: human pancreatic cancer cells (BXPC-3 and PANC-1)
# Assay: MTS cell viability, pancreatic cancer cells
# Format: cell-based
# Description: Cell Lines, Cell Culture, and Reagents. PANC-1, BXPC-3 and CAPAN-1, SKOV-3, MCF7, MDA-MD-231 cells were obtained from ATCC and maintained in DMEM, RPMI-1640 and IMDM supplemented with 10% fetal calf serum penicillin (100 units/mL), and streptomycin (100 μg/mL) at 37° C. with 5% CO2 in a humidified incubator. JIMT-1 cells were purchased from AddexBio Inc, USA (catalog number: C0006005) and maintained in 10% FBS and antibiotic supplemented DMEM. […] The reaction was monitored using thin-layer chromatography plates with DCM-MeOH or pure ethyl acetate as eluent. Spots were monitored in a UV chamber. […] ICM scores for each compound and their poses were calculated and compared with FCF. […] Cell viability of PANC-1, BXPC-3 and CAPAN-1 pancreatic cancer cells treated with UR214-9 was measured using the Cell Titre96R Aqueous One Solution Cell Proliferation Assay (Promega Corp., catalog number: G3580) following the procedure published earlier. […] The cells were analyzed by a 305 flow cytometer and relative live and dead cell population was calculated by inputting equal number of cells in both vehicle and control group.
smiles,measurement,setting,value
O=C(Nc1cc(Cl)nc(Cl)c1)Nc1cccc(SC(F)(F)F)c1F [UR214-9],viability,"BXPC-3 and PANC-1, 72 hours of treatment",reduced the viability
same,"growth (MTS assay), dose dependently","BXPC-3 and PANC-1, by 48th hour of drug exposure",reduced the growth

# Reference: US12433876B2, “Septin inhibitors for treatment of cancers” (UNIVERSITY OF ROCHESTER, priority 2019, dated 2025)
